# Measured values taken from patent US10434095B2, “3-(1-oxo-4-((4-((3-oxomorpholino)methyl)benzyl)oxy)isoindolin-2-yl)piperidine-2,6-dione and isotopologues thereof” (Celgene Corporation, priority 2017, dated 2019).
# What was measured:
# primary human B cells = test: Cell viability analysis (Trypan blue live cell count) in B cell differentiation culture; assay type: cell-based; conditions: cell counts on Day 4 and Day 7 of the 7 day culture; FIG. 2
# Method: (§1) Fresh B cell cocktail was prepared by adding 50 μg/mL of human transferrin to B cell medium (Iscove's medium with 10% PFBS, 1% P/S, and 5 μg/mL human insulin). The required volume of medium needed for the experiment was filtered through a 0.22 micron filter. Add B cell differentiation cocktail (final concentration): recombinant human Interleukin (IL)-2 (20 U/mL), IL-10 (50 ng/mL), IL-15 (10 ng/mL), CD40 Ligand/TNFSF5/histidine-tagged (50 ng/mL), polyHistidine mouse IgG1 antibody (5 μg/mL), and ODN 2006-Human TLR9 ligand (10 μg/mL) to cells. Five milliliters (1×10^5/mL) of CD19^+ B cells were added to each well of a 6-well flat-bottom plate (final cell count=5×10^5/well). Five microliters of a 1× solution of compound or DMSO was added to each test well (0.1% final concentration of DMSO) and incubated at 37{dot over (◯)}° C. for 4 days.
# (§2) Cells were harvested and counted on the cell counter, an aliquot was removed for flow analysis, and the remaining cells were washed with phosphate buffered saline (PBS). […]
# (§3) On Day 4 and Day 7 cells were harvested and counted on the cell counter. […]
# To determine live cell count, B cells (see B Cell Differentiation Assay above) were stained with 0.4% Trypan blue (Gibco cat #15250) and live cells counted using the Countess automated cell counter (Invitrogen) in duplicate samples.
# IgG production = test: Immunoglobulin assay (ELISA) of plasmablast culture supernatants; assay type: cell-based, human; conditions: during plasmablast differentiation; FIG. 5
# Method: as §1
# (§4) Cells were harvested and counted on the cell counter, an aliquot was removed for flow analysis, and the remaining cells were washed with phosphate buffered saline (PBS). Fresh B cell cocktail was prepared by adding 1 μg/ml of human transferrin to B cell medium (Iscove's medium with 10% PFBS, 1% P/S, and 5 μg/mL human insulin). […]
# as §3
# (§5) Supernatants (see B Cell Differentiation Assay above) were harvested and analyzed by ELISA for IgG and IgM production (ZeptoMetrix Corp, Buffalo, N.Y.).
# IgM production = test: as above; assay type: cell-based, human; conditions: during plasmablast differentiation; FIG. 4
# Method: as §1, §4, §3, §5
# [1] = test system: primary human CD19+ B cells differentiating toward the plasma cell lineage; test: B cell differentiation assay, cell phenotyping by flow cytometry (CD20/CD38); assay type: cell-based; conditions: in vitro primary human B cell differentiation culture; FIG. 1
# Method: The effect of Compound I-S on the expression of transcription factors controlling plasma cell differentiation and immunoglobulin production using an in-vitro human B-cell differentiation culture system was invesitaged according to the procedures below:
# Twenty-five milliliters human buffy coat were placed into each of two 50-mL conical tubes and 25 mL sterile Hank's buffered saline solution (HBSS) were added to each conical tube. The tubes were gently mixed by inverting. Fifteen milliliters of room temperature Ficoll-Paque Plus (GE Healthcare; Cat#17-1440-02) were placed into each of four 50-mL conical tubes. Then 25 mL of the buffy coat/HBSS mixture were layered gently and slowly on top of the Ficoll. […] The cell pellet was resuspended in 20 mL of B cell medium (Iscove's modified Dulbecco's medium+10% premium fetal bovine serum [PFBS], 1% penicillin/streptomycin [P/S], and 5 μg/mL human insulin), pipetted through a 30 micron filter, and an aliquot was counted using the cell counter.
# Aliquots of purified PBMCs (2×10^8 cells) were placed in tubes, centrifuged at 1200 rpm for 5 minutes, and then supernatants were discarded. […] The enriched CD19^+ cells were resuspended in 5 mL of B cell medium and counted on the cell counter. […]
# as §2
# BCL-6 = test: Gene expression (RT-PCR) in differentiated B cells; assay type: cell-based, human; conditions: Day 7 differentiated B cells, normalized to 0.1% DMSO; FIG. 3
# Method: as §1
# (§6) Cells were harvested and counted on the cell counter, an aliquot was removed for flow analysis, and the remaining cells were washed with phosphate buffered saline (PBS). Fresh B cell cocktail was prepared by adding 1 μg/ml of human transferrin to B cell medium (Iscove's medium with 10% PFBS, 1% P/S, and 5 μg/mL human insulin). The required volume of medium needed for the experiment was filtered through a 0.22 micron filter. B cell differentiation cocktail (final concentration) consisting of: recombinant human IL-2 (20 U/mL), IL-10 (50 ng/mL), IL-15 (10 ng/mL), and IL-6 (50 ng/mL) was added to cells. Fresh B cell cocktail was added to cells. Cells were transferred back to the original wells and the volume was adjusted to 5 mL. Five microliters of a 1× solution of compound or DMSO was added to each test well (0.1% final DMSO) and incubated at 37{dot over (◯)}° C. for 3 days.
# (§7) On Day 4 and Day 7 cells were harvested and counted on the cell counter. A portion of the cells were then removed for flow analysis and the remaining cells were lysed with RLT buffer and stored at −80° C. for RNA extraction and gene expression. Supernatants were divided into aliquots and frozen at −20° C. for immunoglobulin assays.
# (§8) Differentiated B cells (see B Cell Differentiation Assay above) were harvested for total ribonucleic acid (RNA) preparation with a Qiacube RNA extraction instrument (Qiagen, Valencia, Calif.) using QIAGEN RNeasy mini spin-column kits (Catalog #74104). Purified RNA was reverse transcribed into cDNA with thermal cycler (MJ Research, Inc., St. Bruno, Quebec, Canada) using a reverse-transcriptase kit (Applied Biosystems). The gene expression assay was carried out using 7500 real time polymerase chain reaction (RT-PCR) system (Applied Biosystems) in triplicate. A glyceraldehyde 3-phosphate dehydrogenase gene expression assay control was run for each sample and used as a normalization control. For each gene, values for samples within each experiment were normalized to the corresponding 0.1% DMSO treatment value for that particular time point.
# OBF-1 = test: Gene expression (RT-PCR) in differentiated B cells; assay type: cell-based, human; conditions: Day 7 differentiated B cells, normalized to 0.1% DMSO; FIG. 3
# Method: as §1, §6, §7, §8
# IRF-4 = test: Gene expression (RT-PCR) in differentiated B cells; assay type: cell-based, human; conditions: Day 7 differentiated B cells, normalized to 0.1% DMSO; FIG. 3
# Method: as §1, §6, §7, §8
# BLIMP-1 = test: Gene expression (RT-PCR) in differentiated B cells; assay type: cell-based, human; conditions: Day 7 differentiated B cells, normalized to 0.1% DMSO; FIG. 3
# Method: as §1, §6, §7, §8
# XBP-1 = test: Gene expression (RT-PCR) in differentiated B cells; assay type: cell-based, human; conditions: Day 7 differentiated B cells, normalized to 0.1% DMSO; FIG. 3
# Method: as §1, §6, §7, §8
# IgJ = test: Gene expression (RT-PCR) in differentiated B cells; assay type: cell-based, human; conditions: Day 7 differentiated B cells, normalized to 0.1% DMSO; FIG. 3
# Method: as §1, §6, §7, §8
smiles,measurement,setting,value
"O=C1CC[C@H](N2Cc3c(OCc4ccc(CN5CCOCC5=O)cc4)cccc3C2=O)C(=O)N1 [Compound I-S, (S)-3-(1-oxo-4-((4-((3-oxomorpholino)methyl)benzyl)oxy)isoindolin-2-yl)piperidine-2,6-dione]",B cell viability (live cell count),primary human B cells,reduce B cell viability
same,IgG production,IgG production,significantly inhibited
same,IgM production,IgM production,significantly inhibited
same,percentage of CD20+CD38- activated B cells (ABC),[1],increased
same,percentage of CD20-CD38+ plasmablasts (PB),[1],dose-dependently reduced
same,expression of germinal center lineage B cell transcription factor BCL-6,BCL-6,did not decrease
same,expression of plasma cell lineage transcription factor OBF-1,OBF-1,dose-dependently and significantly inhibited
same,expression of plasma cell lineage transcription factor IRF-4,IRF-4,dose-dependently and significantly inhibited
same,expression of plasma cell lineage transcription factor BLIMP-1,BLIMP-1,dose-dependently and significantly inhibited
same,expression of plasma cell lineage transcription factor XBP-1,XBP-1,dose-dependently and significantly inhibited
same,expression of plasma cell lineage transcription factor IgJ,IgJ,dose-dependently and significantly inhibited
